Results: ChEMBL document CHEMBL5550146, “Design, synthesis, and biological evaluation of novel sesquiterpene lactone derivatives as PKM2 activators with potent anti-ulcerative colitis activities” (Eur J Med Chem, 2024)
pIC50: −log10 of the molar value. Activity calls are given as the source filed them. No cut-off for these calls is given here.

Key:
T-cell = experiment: Antiproliferative activity against concanavalin A-stimulated C57BL/6 mouse T cells measured after 48 hrs by CCK8 assay; assay type: functional, cell-based; settings: C57BL/6, T-cell
Pyruvate kinase PKM = Pyruvate kinase PKM (Homo sapiens, UniProt P14618); experiment: Activation of recombinant human PKM2 incubated for 40 mins by pyruvate kinase assay
Sequence of Pyruvate kinase PKM (P14618 whole entry): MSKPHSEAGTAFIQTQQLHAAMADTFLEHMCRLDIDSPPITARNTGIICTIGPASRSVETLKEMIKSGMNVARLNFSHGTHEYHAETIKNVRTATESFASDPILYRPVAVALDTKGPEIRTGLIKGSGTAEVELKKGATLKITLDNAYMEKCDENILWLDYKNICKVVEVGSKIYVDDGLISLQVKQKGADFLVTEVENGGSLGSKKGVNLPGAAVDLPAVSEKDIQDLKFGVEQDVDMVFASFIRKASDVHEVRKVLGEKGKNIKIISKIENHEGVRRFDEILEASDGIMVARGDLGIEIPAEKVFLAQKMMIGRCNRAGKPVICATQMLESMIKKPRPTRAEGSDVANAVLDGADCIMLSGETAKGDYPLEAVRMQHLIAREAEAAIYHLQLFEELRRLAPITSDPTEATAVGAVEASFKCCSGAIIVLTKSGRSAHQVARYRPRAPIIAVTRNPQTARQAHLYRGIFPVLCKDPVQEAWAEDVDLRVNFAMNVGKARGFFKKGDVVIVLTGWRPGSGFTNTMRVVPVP

Mus musculus = experiment: Antiinflammatory activity in DSS-induced colitis female C57BL/6 mouse model assessed as reduction in shortening of colon length at 200 mg/kg, ip administered for 12 days with subsequent treatment of DSS for 9 days followed by drinking water for 3 days; assay type: functional, organism-based; settings: time 12.0 day

AC50 (Pyruvate kinase PKM) [µM] | Compound | pIC50 (T-cell) | Activity (Mus musculus)
1.06 | C=C1C(=O)O[C@@H]2C3O[C@]3(C)CC/C=C(\C)CC[C@@H]12 (some centres undefined) | 5.71 | 
1.23 | C=C1C(=O)O[C@H]2[C@H]1CC/C(CNS(=O)(=O)c1ccc(F)cc1)=C\CC[C@@]1(C)O[C@@H]21 | 5.82 | 
> 3 | C=C1C(=O)O[C@H]2[C@H]1CC/C(COC(=O)NCCN(C)C)=C\CC[C@@]1(C)O[C@@H]21 | 5.54 | 
> 3 | C=C1C(=O)O[C@H]2[C@H]1CC/C(COC(=O)N1CCN(CC)CC1)=C\CC[C@@]1(C)O[C@@H]21 | 5.63 | 
0.966 | C=C1C(=O)O[C@H]2[C@H]1CC/C(CNS(=O)(=O)c1ccc([N+](=O)[O-])cc1)=C\CC[C@@]1(C)O[C@@H]21 | 5.88 | 
 | COc1ccc(/C=C2/C(=O)O[C@H]3[C@H]2CC/C(C)=C/CC[C@@]2(C)O[C@@H]32)cc1 | 5.34 | 
> 3 | C=C1C(=O)O[C@H]2[C@H]1CC/C(CNS(C)(=O)=O)=C\CC[C@@]1(C)O[C@@H]21 | 5.50 | 
0.812 | C=C1C(=O)O[C@H]2[C@H]1CC/C(COC(=O)NCCC)=C\CC[C@@]1(C)O[C@@H]21 | 5.90 | 
 | C/C1=C\CC[C@@]2(C)O[C@H]2[C@H]2OC(=O)/C(=C/c3ccccc3)[C@@H]2CC1 | 5.37 | 
0.567 | C=C1C(=O)O[C@H]2[C@H]1CC/C(COC(=O)N1CCN(C)CC1)=C\CC[C@@]1(C)O[C@@H]21 | 5.98 | 
2.22 | C=C1C(=O)O[C@H]2[C@H]1CC/C(COC(=O)NCC)=C\CC[C@@]1(C)O[C@@H]21 | 5.77 | 
> 3 | C=C1C(=O)O[C@H]2[C@H]1CC/C(CNS(=O)(=O)C(F)(F)F)=C\CC[C@@]1(C)O[C@@H]21 | 5.53 | 
> 3 | C=C1C(=O)O[C@H]2[C@H]1CC/C(COC(=O)NCCN(CC)CC)=C\CC[C@@]1(C)O[C@@H]21 | 5.60 | 
0.66 | C=C1C(=O)O[C@H]2[C@H]1CC/C(COC(=O)N(CCC)CCC)=C\CC[C@@]1(C)O[C@@H]21 | 5.93 | 
> 3 | C=C1C(=O)O[C@H]2[C@H]1CC/C(COC(=O)NC)=C\CC[C@@]1(C)O[C@@H]21 | 5.59 | 
0.736 | C=C1C(=O)O[C@H]2[C@H]1CC/C(COC(=O)N1CCCC1)=C\CC[C@@]1(C)O[C@@H]21 | 5.75 | 

AC50 (Pyruvate kinase PKM) [µM] | Compound | pIC50 (T-cell) | Activity (Mus musculus)
0.867 | C=C1C(=O)O[C@H]2[C@H]1CC/C(CO)=C\CC[C@@]1(C)O[C@@H]21 | 5.80 | 
 | Nc1ccc(O)c(C(=O)O)c1 |  | Active
 | C=C1C(=O)O[C@H]2[C@H]1CC/C(C(=O)O)=C\CC[C@@]1(C)O[C@@H]21 | < 5.00 | 
 | C=C1C(=O)O[C@H]2[C@H]1C[C@@H](Br)/C(C)=C/CC[C@@]1(C)O[C@@H]21 | 5.42 | 
> 3 | C=C1C(=O)O[C@H]2[C@H]1CC/C(COC(=O)NOC)=C\CC[C@@]1(C)O[C@@H]21 | 5.63 | 
0.637 | C=C1C(=O)O[C@H]2[C@H]1CC/C(CNS(=O)(=O)c1ccccc1)=C\CC[C@@]1(C)O[C@@H]21 | 5.92 | 
> 3 | C=C1C(=O)O[C@H]2[C@H]1CC/C(CNS(=O)(=O)C1CC1)=C\CC[C@@]1(C)O[C@@H]21 | 5.58 | 
> 3 | C=C1C(=O)O[C@H]2[C@H]1CC/C(COC)=C\CC[C@@]1(C)O[C@@H]21 | 5.63 | 
 | C=C1C(=O)O[C@H]2[C@H]1C[C@@H](O)/C(C)=C/CC[C@@]1(C)O[C@@H]21 | 5.46 | 
 | C=C1C(=O)O[C@H]2[C@H]1CC/C(C=O)=C\CC[C@@]1(C)O[C@@H]21 | < 5.00 | 
 | C/C1=C\CC[C@@]2(C)O[C@H]2[C@H]2OC(=O)/C(=C/c3cccc4ccccc34)[C@@H]2CC1 | 5.34 | 
1.57 | C=C1C(=O)O[C@H]2[C@H]1CC/C(COC(=O)N(C)C)=C\CC[C@@]1(C)O[C@@H]21 | 5.79 | 
0.492 | C=C1C(=O)O[C@H]2[C@H]1CC/C(CNS(=O)(=O)c1ccc(OC)cc1)=C\CC[C@@]1(C)O[C@@H]21 | 5.98 | 
> 3 | C=C1C(=O)O[C@H]2[C@H]1C[C@@H](F)/C(C)=C/CC[C@@]1(C)O[C@@H]21 | 5.63 | 
> 3 | C=C1C(=O)O[C@H]2[C@H]1CC/C(CNS(=O)(=O)CC)=C\CC[C@@]1(C)O[C@@H]21 | 5.53 | 
